Some targets named below: KPC-2 (Klebsiella pneumoniae, UniProt Q9F663); SHV-1 (Klebsiella pneumoniae, UniProt P0AD64); OXA-11 (Pseudomonas aeruginosa, UniProt Q06778); OXA-1 (Escherichia coli, UniProt P13661); CTX-M-15 (Escherichia coli, UniProt Q9EXV5); OXA-48 (Klebsiella pneumoniae, UniProt Q6XEC0); TEM-1 (Escherichia coli, UniProt P62593).
Another assay has as its target AmpC (P99) (Enterobacter cloacae, UniProt P05364). Description: biochemical.
The next assay addresses AmpC (PAE) (Pseudomonas aeruginosa, UniProt P24735). Description: biochemical.
The target in another assay is OXA-15 (Pseudomonas aeruginosa, UniProt Q51574). Description: biochemical.
In a further assay the target is CMY-37 (Citrobacter freundii, UniProt P05193). The following applies: read-out: IC50 β-lactamase CMY-37.
In another assay the test system is E. cloacae P99. Description: MIC of compound alone, broth microdilution. Format: cell-based. The settings on record: Enterobacter cloacae; strain P99; compound alone; read-out: MIC compounds of the invention alone. Put shortly: (§1)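 Visual end point: lowest concentration that blocked growth. Conditions: cation-adjusted Mueller-Hinton broth, 5×10^5 cfu/mL final inoculum of log-phase bacteria, 16-20 h, 35° C, ambient atmosphere.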
On the technique in general: Dilution methods test growth across graded concentrations, often in twofold steps.

In the next assay the test system is K. pneumoniae 6299. The assay is described as follows: MIC of compound alone, broth microdilution. Format: cell-based. The settings on record: Klebsiella pneumoniae; strain 6299; compound alone; read-out: MIC compounds of the invention alone. The method, boiled down:
as §1

The test system of the next assay is P. aeruginosa CIP107051. Description: MIC of compound alone, broth microdilution. The assay is classed as cell-based. The settings on record: Pseudomonas aeruginosa; strain CIP107051; compound alone; read-out: MIC compounds of the invention alone. Put shortly: as §1
In the next assay the test system is K. pneumoniae BAA-1898. Description: MIC of compound alone, broth microdilution. Format: cell-based. The following applies: Klebsiella pneumoniae, BAA1898; strain BAA-1898; compound alone; read-out: MIC compounds of the invention alone. Put shortly: as §1
The next assay has as its system E. coli 190317. Description: MIC of compound alone, broth microdilution. The assay is classed as cell-based. The settings on record: Escherichia coli; strain 190317; compound alone; read-out: MIC compounds of the invention alone. The method, boiled down:
as §1

Where a name gives a salt, the structure may show the parent alone. Read-outs that look alike come from different tables or passages of the source.

For the molecule `O=C(Nc1nccs1)c1ccn(C2=CC3CN(C2)C(=O)N3OS(=O)(=O)[O-])n1.[Na+]` (stereo not shown) [Example 25, sodium [7-oxo-3-[3-(thiazol-2-ylcarbamoyl)pyrazol-1-yl]-1,6-diazabicyclo[3.2.1]oct-3-en-6-yl]sulfate], the IC50 (usually the concentration that inhibits the measured activity by half) against AmpC (P99) was found to be 9.4 nM; against AmpC (PAE) it was 130 nM; at OXA-15, 12 nM; on KPC-2 it was 2.5 nM; on SHV-1, 1.2 nM; on OXA-11, 4.2 nM. The IC50 against OXA-1 is 37 nM; against CTX-M-15 it was 0.43 nM; at CMY-37 it was 9.2 nM; on OXA-48 it was 1.7 nM; against TEM-1, 0.29 nM. Moreover, the MIC in the assay on E. cloacae P99, with K. pneumoniae 6299, with P. aeruginosa CIP107051, in the assay with K. pneumoniae BAA-1898 and in the assay with E. coli 190317 was > 32 µg/mL throughout.

For `O=C1N2CC(n3cc(N4CCNCC4)cn3)=CC(C2)N1OS(=O)(=O)O` (stereo not shown) [Example 42, 2,2,2-trifluoroacetate [7-oxo-3-(4-piperazin-4-ium-1-ylpyrazol-1-yl)-1,6-diazabicyclo[3.2.1]oct-3-en-6-yl]hydrogen sulfate], the IC50 came out at 86 nM on AmpC (P99); 180 nM at AmpC (PAE); 34 nM against OXA-15; 76 nM on KPC-2; 1.5 nM against SHV-1; 850 nM against OXA-11. Moreover, the concentration for half-maximal inhibition (IC50) worked out at 1600 nM against OXA-1; 0.47 nM on CTX-M-15; 59 nM at CMY-37 (class (C), nitrocefin 200 μM, 30-min pre-incubation, enzyme 0.2 nM); 9.1 nM against OXA-48; 0.31 nM on TEM-1. The minimum inhibitory concentration (MIC) – broadly, the lowest concentration that inhibits growth of the organism – in the assay on E. cloacae P99 is 16 µg/mL; with K. pneumoniae 6299, > 32 µg/mL; in the assay on P. aeruginosa CIP107051, > 32 µg/mL; in the assay with K. pneumoniae BAA-1898, > 32 µg/mL; with E. coli 190317, 4 µg/mL.

For the molecule `O=C(CCO)Nc1ccn(C2=CC3CN(C2)C(=O)N3OS(=O)(=O)[O-])n1.[Na+]` (stereo not shown) [Example 51, sodium [3-[3-(3-hydroxypropanoylamino)pyrazol-1-yl]-7-oxo-1,6-diazabicyclo[3.2.1]oct-3-en-6-yl]sulfate], the half-maximal inhibitory concentration (IC50) worked out at 17 nM on AmpC (P99); 78 nM at AmpC (PAE); 76 nM against OXA-15; 18 nM against KPC-2; 1.9 nM on SHV-1; 12 nM on OXA-11. Further, the IC50 against OXA-1 stood at 97 nM; against CTX-M-15, 0.28 nM; on CMY-37, 6.3 nM; on OXA-48, 3.8 nM; at TEM-1 it was 0.3 nM. For the same molecule, the MIC in the assay with E. cloacae P99 was 16 µg/mL; with K. pneumoniae 6299 it was 16 µg/mL; with P. aeruginosa CIP107051, > 32 µg/mL; with K. pneumoniae BAA-1898, 32 µg/mL; in the assay on E. coli 190317, 8 µg/mL.

In the case of `O=C(NCCO)c1ccn(C2=CC3CN(C2)C(=O)N3OS(=O)(=O)[O-])n1.[Na+]` (stereo not shown) [Example 11, sodium [3-[3-(2-hydroxyethylcarbamoyl)pyrazol-1-yl]-7-oxo-1,6-diazabicyclo[3.2.1]oct-3-en-6-yl]sulfate], the IC50 on AmpC (P99) turned out to be 27 nM; at AmpC (PAE), 430 nM; against OXA-15, 78 nM; against KPC-2, 12 nM; on SHV-1 it was 7.6 nM; against OXA-11, 21 nM. Besides, the 50% inhibitory concentration (IC50) against OXA-1 was determined as 95 nM; at CTX-M-15 it was 1.4 nM; at CMY-37, 53 nM; against OXA-48 it was 7.7 nM; against TEM-1, 1.2 nM. Also, the minimal inhibitory concentration (MIC) is 32 µg/mL in the assay with E. cloacae P99; > 32 µg/mL in the assay on K. pneumoniae 6299; > 32 µg/mL with P. aeruginosa CIP107051; > 32 µg/mL in the assay with K. pneumoniae BAA-1898; 16 µg/mL in the assay on E. coli 190317.

The record behind these values is patent publication US10722520B2, “Heterocyclic compounds and their use in preventing or treating bacterial infections” (MUTABILIS, priority 2016, dated 2020).
